Measured values from PubChem BioAssay AID2744 (NMMLSC, 2010).
pEC50: −log10 of the molar value. The source made the active and inactive calls.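 Rule for the calls: active = fitted half-maximal concentration for changing reporter fluorescence at or below a set limit; inactive = the rest.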

Biological target: Citrate synthase, peroxisomal (Saccharomyces cerevisiae (strain ATCC 204508 / S288c)) (UniProt P08679)
Experiment: CIT2-GFP expression modulators in yeast, dose response, flow cytometry, MLPCN hits (AID 2744)
Conditions: S. cerevisiae CIT2-GFP strain, 3 h; for GFP fluorescence, higher = induction: at 33 µM (top of the series); for pEC50: flow cytometry fluorescence

Sequence of Citrate synthase, peroxisomal (Saccharomyces cerevisiae (strain ATCC 204508 / S288c)) (P08679 whole entry, looked up): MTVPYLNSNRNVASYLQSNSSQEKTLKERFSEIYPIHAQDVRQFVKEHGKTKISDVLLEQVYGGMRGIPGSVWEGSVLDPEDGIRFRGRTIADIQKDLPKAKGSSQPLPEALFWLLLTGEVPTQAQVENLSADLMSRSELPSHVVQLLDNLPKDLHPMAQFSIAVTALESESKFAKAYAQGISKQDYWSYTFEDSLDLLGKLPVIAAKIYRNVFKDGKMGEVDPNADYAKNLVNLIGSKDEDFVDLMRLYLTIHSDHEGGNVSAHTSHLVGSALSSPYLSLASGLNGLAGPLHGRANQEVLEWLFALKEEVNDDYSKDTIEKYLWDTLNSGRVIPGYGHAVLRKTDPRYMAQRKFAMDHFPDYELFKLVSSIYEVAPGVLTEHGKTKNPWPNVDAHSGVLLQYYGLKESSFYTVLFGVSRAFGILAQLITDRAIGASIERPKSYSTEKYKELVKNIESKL

In the case of `Cc1ccc(C(CC(=O)O)NC(=O)c2ccc(S(=O)(=O)N3CC(C)OC(C)C3)cc2)cc1` (configuration not stated), the “GFP fluorescence, higher = induction” value was “inactive”.

With `Oc1cc(-c2ccc(N3CCCCC3)nc2)cc2cccnc12` the “GFP fluorescence, higher = induction” value was “inactive”.

In the case of `CC(C)(C)n1nc(-c2ccc(F)cc2)c2c(N)ncnc21`, the “GFP fluorescence, higher = induction” value was “inactive”.

With `O=C(/C=C/c1cc(Br)ccc1O)c1ccco1` the “GFP fluorescence, higher = induction” value was “inactive”.

`COc1cc(N2C(=O)C=CC2=O)c(OC)cc1Cl` was tested, and the “GFP fluorescence, higher = induction” value was “inactive”.

With `COC(=O)CCS(=O)(=O)c1nc(-c2ccccc2)cc(C(F)(F)F)n1` the “GFP fluorescence, higher = induction” value was “inactive”.

In the case of `CN(C)c1ccc(N=Cc2nc(-c3ccccc3)oc2OC(=O)c2cccc(Cl)c2)cc1`, the “GFP fluorescence, higher = induction” value was “inactive”.

In the case of `COc1ccc(N2CCN(C(=O)c3ccccc3)CC2)c([N+](=O)[O-])c1`, the “GFP fluorescence, higher = induction” value was “inactive”.

`CCC(=O)Nc1ccc(NC(=O)c2cc3ccccc3o2)c(OC)c1` was tested, and the “GFP fluorescence, higher = induction” value was “inactive”.

With `CC(c1ccccc1)N1C(=O)/C(=C/c2ccncc2)SC1=S` (configuration not stated) the “GFP fluorescence, higher = induction” value was “inactive”.

For `O=C(/C=C/c1ccc(Cl)c([N+](=O)[O-])c1)c1cccnc1`, the “GFP fluorescence, higher = induction” value was “inactive”.

In the case of `C#CCOCCOCCOCCNc1nc(N2CCN(C(=O)CCCCCCCCCCNC(=O)[C@@H](CCC(=O)O)n3cc(CCCCCN)nn3)CC2)nc(N2CCN(C(=O)CCCCCCCCCCNC(=O)[C@H](CCCCN)n3cc(C[C@@H](C)CC)nn3)CC2)n1`, the “GFP fluorescence, higher = induction” value was “inactive”.

`CC(=O)N(C1=C(Cl)C(=O)c2ccccc2C1=O)C1CCCCC1` was tested, and the “GFP fluorescence, higher = induction” value was “inactive”.

With `O=C(O)c1ccc(COc2ccccc2C=C2C(=O)c3ccccc3C2=O)cc1` the “GFP fluorescence, higher = induction” value was “inactive”.

For `Oc1ccc(Br)cc1/C=N/Nc1ccccn1`, the “GFP fluorescence, higher = induction” value was “inactive”.

For `O=C(Nc1cccc(-c2csc(Nc3ccccc3)n2)c1)c1ccccc1`, the “GFP fluorescence, higher = induction” value was “inactive”.

With `CC(=O)Oc1oc(-c2ccccc2)nc1C=Nc1ccc(N(C)C)cc1` the “GFP fluorescence, higher = induction” value was “inactive”.

In the case of `COc1cc(SSc2cc(OC)cc([N+](=O)[O-])c2N)c(N)c([N+](=O)[O-])c1`, the “GFP fluorescence, higher = induction” value was “inactive”.

With `O=C1c2cccc3c([N+](=O)[O-])ccc(c23)C(=O)N1CCc1ccccn1` the “GFP fluorescence, higher = induction” value was “inactive”.

`O=[N+]([O-])c1ccc(-c2cn3nc(-c4ccccc4)c(-c4ccccc4)nc3n2)cc1` was tested, and the “GFP fluorescence, higher = induction” value was “inactive”.

`CCOC(=O)CCS(=O)(=O)c1nc(-c2ccccc2)cc(C(F)(F)F)n1` was tested, and the “GFP fluorescence, higher = induction” value was “inactive”.

In the case of `CCN(CC)C(=O)Oc1ccnc2cc(Cl)ccc12`, the “GFP fluorescence, higher = induction” value was “inactive”.

With `COC(=O)/C(=C/c1c[nH]c2ccccc12)[N+](=O)[O-]` the “GFP fluorescence, higher = induction” value was “inactive”.

In the case of `CC1=C(C)/C(=N\OS(=O)(=O)c2ccc(C)cc2)C=CC1=O`, the “GFP fluorescence, higher = induction” value was “inactive”.

`O=C(/C=C/Sc1ncn[nH]1)c1ccc(Cl)cc1` was tested, and the “GFP fluorescence, higher = induction” value was “inactive”.

With `Cc1ccc(N/N=C(\C#N)C(N)=S)c(C)c1` the “GFP fluorescence, higher = induction” value was “inactive”.

For `C=CCN1C(=O)/C(=C/c2ccc(-c3ccc(F)cc3)o2)SC1=S`, the “GFP fluorescence, higher = induction” value was “inactive”.

In the case of `COc1cccc(/C=C2\SC(=S)N(CCCC(=O)Nc3ccc(C(=O)O)cc3)C2=O)c1`, the “GFP fluorescence, higher = induction” value was “inactive”.

`CC1(c2ccccc2)ON(c2ccccc2C(F)(F)F)C1=O` (configuration not stated) was tested, and the “GFP fluorescence, higher = induction” value was “inactive”.

With `N/C(=N\OC(=O)c1cccc(Br)c1)c1ccccc1` the “GFP fluorescence, higher = induction” value was “inactive”.

`COc1cc(CNC(=O)CCCCCCC(C)C)ccc1O` was tested, and the “GFP fluorescence, higher = induction” value was “inactive”.

With `O=C(/C=C/c1ccccn1)c1cc(Br)ccc1O` the “GFP fluorescence, higher = induction” value was “inactive”.

In the case of `CC(C)CC(=O)NC(=S)Nc1nc(-c2ccccc2)cs1`, the “GFP fluorescence, higher = induction” value was “inactive”.

With `CC(C)(C)c1nnc(N/N=C/c2cc(Br)ccc2O)n(N)c1=O` the “GFP fluorescence, higher = induction” value was “inactive”.

For `Oc1c(CN2CCN(c3ccc(F)cc3)CC2)cc(Cl)c2cccnc12`, the “GFP fluorescence, higher = induction” value was “inactive”.

With `Cc1cc(C)c(OCC(=O)Nc2nc(-c3ccccn3)cs2)c(C)c1` the “GFP fluorescence, higher = induction” value was “inactive”.

With `CN(c1ccccc1)c1ccc(/C=c2\s/c(=C(/C#N)C(=O)C(C)(C)C)n(Cc3ccco3)c2=O)cc1` the “GFP fluorescence, higher = induction” value was “inactive”.

For `CCOC(=O)CS(=O)(=O)c1nc(-c2ccc(F)cc2)cc(C(F)(F)F)n1`, the “GFP fluorescence, higher = induction” value was “inactive”.

With `Clc1cnc(N/N=C/c2cccs2)c(Cl)c1` the “GFP fluorescence, higher = induction” value was “inactive”.

`CCOC(=O)CSC1=NC(=O)/C(=C/c2ccc(OC)cc2)S1` was tested, and the “GFP fluorescence, higher = induction” value was “inactive”.

In the case of `O=C(/C=C/c1ccccc1[N+](=O)[O-])c1ccccc1Br`, the “GFP fluorescence, higher = induction” value was “inactive”.

For `O=C(/C=C/c1ccccc1Cl)c1ccccc(=O)c1O`, the “GFP fluorescence, higher = induction” value was “inactive”.

In the case of `CCC1(c2ccccc2)ON(c2c(Br)cccc2Br)C1=O` (configuration not stated), the “GFP fluorescence, higher = induction” value was “inactive”.

`Cc1ccc(S(=O)(=O)N2CCCC2C(=O)NCc2ccncc2)cc1` (configuration not stated) was tested, and the “GFP fluorescence, higher = induction” value was “inactive”.

For `CC(C)[C@@]1(c2ccc(Cl)cc2)ON(c2ccccc2C(F)(F)F)C1=O`, the “GFP fluorescence, higher = induction” value was “inactive”.

In the case of `CC1(C)OC(c2ccccc2)=C/C(=C/C=C2C(=O)NC(=S)NC2=O)O1`, the “GFP fluorescence, higher = induction” value was “inactive”.

With `CCCc1cc(N2CCN(c3ccccn3)CC2)n2nc(C)c(-c3ccccc3)c2n1` the “GFP fluorescence, higher = induction” value was “inactive”.

`O=C(NCc1ccc2c(c1)OCO2)c1nc(S(=O)(=O)Cc2ccccc2)ncc1Cl` was tested, and the “GFP fluorescence, higher = induction” value was “inactive”.

For `CCCCC(=O)NC(=S)NNC(=O)CCc1ccccc1`, the “GFP fluorescence, higher = induction” value was “inactive”.

With `O=C1Nc2ccc(Br)cc2/C1=C/C(=O)c1ccc2c(c1)OCO2` the “GFP fluorescence, higher = induction” value was “inactive”.

With `COc1ccc(N=Cc2nc(-c3ccccc3)oc2OC(=O)c2ccccc2)cc1` the “GFP fluorescence, higher = induction” value was “inactive”.

In the case of `O=C(O)c1ccc2c(c1)C(=O)/C(=C/c1ccccc1)C2=O`, the “GFP fluorescence, higher = induction” value was “inactive”.

With `O=C(Nc1ccc(NC(=O)c2cc3ccccc3o2)cc1)c1ccco1` the “GFP fluorescence, higher = induction” value was “inactive”.

For `CCCCOc1ccc(C(=O)NNC(=S)NC(=O)CC)cc1`, the “GFP fluorescence, higher = induction” value was “inactive”.

In the case of `Cc1cc(O)c(C(=O)/C=C/c2ccc(Cl)cc2)c(=O)o1`, the “GFP fluorescence, higher = induction” value was “inactive”.

`Cc1ccc(C(=O)O/N=C(\N)Cc2cccs2)c(Cl)c1` was tested, and the “GFP fluorescence, higher = induction” value was “inactive”.

For `Oc1c(Br)cc(Br)cc1C=Nc1ccc2[nH]ncc2c1`, the “GFP fluorescence, higher = induction” value was “inactive”.

In the case of `C#CCOCCOCCOCCNc1nc(N2CCN(C(=O)CCCCCCCCCCNC(=O)[C@H](CCCCN)n3cc(CCO)nn3)CC2)nc(N2CCN(C(=O)CCCCCCCCCCNC(=O)[C@H](CCCCN)n3cc(C[C@@H](C)CC)nn3)CC2)n1`, the “GFP fluorescence, higher = induction” value was “inactive”.

`N/C(Cc1ccc(Cl)cc1)=N\OC(=O)c1ccccc1` showed a pEC50 of 5.47.

`Cc1ccccc1N1C(=O)C(Cl)=C(N2CCN(c3ccccc3)CC2)C1=O` was tested, and the “GFP fluorescence, higher = induction” value was “inactive”.

In the case of `COc1ccc2c(c1)S/C(=C\C(=O)c1ccncc1)N2C`, the “GFP fluorescence, higher = induction” value was “inactive”.

With `O=C(COc1ccccc1)NNC(=S)NC(=O)c1ccccc1` the “GFP fluorescence, higher = induction” value was “inactive”.

For `C=CCOc1ccccc1C(=O)/C=C1/C(=O)Nc2ccccc21`, the “GFP fluorescence, higher = induction” value was “inactive”.

For `CC[C@]1(c2ccccc2C)ON(c2ccccc2C(F)(F)F)C1=O`, the “GFP fluorescence, higher = induction” value was “inactive”.

In the case of `Cc1ccsc1/C=N/Nc1ncc(Cl)cc1Cl`, the “GFP fluorescence, higher = induction” value was “inactive”.

For `O=c1oc(/C=C/c2ccc([N+](=O)[O-])s2)nc2ccccc12`, the “GFP fluorescence, higher = induction” value was “inactive”.

With `COc1ccc(NC2=C(Cl)C(=O)N(CCc3ccccc3)C2=O)cc1` the “GFP fluorescence, higher = induction” value was “inactive”.

In the case of `Cc1ccc(/C=C2\SC(=S)N(Cc3ccccc3)C2=O)o1`, the “GFP fluorescence, higher = induction” value was “inactive”.

In the case of `Cc1ccc(/C=C2\C(=O)NC(=S)N(c3ccc(F)cc3)C2=O)s1`, the “GFP fluorescence, higher = induction” value was “inactive”.

In the case of `Cc1c(Br)c(=O)oc2c(Br)c(O)c(O)cc12`, the “GFP fluorescence, higher = induction” value was “inactive”.

`CC[C@]1(c2ccccc2OC)ON(c2ccccc2C(F)(F)F)C1=O` was tested, and the “GFP fluorescence, higher = induction” value was “inactive”.

For `CNC(CC(=O)c1ccc([N+](=O)[O-])cc1)C(Cl)(Cl)Cl` (configuration not stated), the “GFP fluorescence, higher = induction” value was “inactive”.

For `CC(=O)OC[C@]12CC[C@H]3[C@@](C)(CC[C@H]4C(C)(C)CCC[C@]34C)[C@@H]1C[C@H](C1=CC(=O)O[C@@H]1OC(C)=O)O2`, the “GFP fluorescence, higher = induction” value was “inactive”.

`CN1C(=O)/C(=N\OC(=O)c2cccc3ccccc23)c2ccccc21` was tested, and the “GFP fluorescence, higher = induction” value was “inactive”.

In the case of `CN(C)C(=O)Oc1ccnc2cc(Cl)ccc12`, the “GFP fluorescence, higher = induction” value was “inactive”.

In the case of `N/C(=N\OC(=O)c1cc(Br)ccc1Cl)c1ccccn1`, the pEC50 was 5.39.

In the case of `CC[C@@]1(c2ccccc2OC)ON(c2ccccc2C(F)(F)F)C1=O`, the “GFP fluorescence, higher = induction” value was “inactive”.

With `COc1ccc([C@]2(C(C)C)ON(c3ccccc3C(F)(F)F)C2=O)cc1` the “GFP fluorescence, higher = induction” value was “inactive”.

In the case of `Cc1ccc(C(=O)Sc2cccccc2=O)cc1`, the “GFP fluorescence, higher = induction” value was “inactive”.

In the case of `CCOC(=O)C1=C(O)c2ccccc2C(=O)/C1=C\c1ccc(C)cc1`, the “GFP fluorescence, higher = induction” value was “inactive”.

In the case of `O=C(NC(=S)NNC(=O)c1ccc(Cl)cc1Cl)c1cccnc1`, the “GFP fluorescence, higher = induction” value was “inactive”.

With `O=C1C=CC(=O)N1N(c1ccccc1)c1ccccc1` the “GFP fluorescence, higher = induction” value was “inactive”.
